{"source": "patent US5442060A", "about": "“Carboxamide derivatives” (Mitsubishi Kasei Corporation, priority 1992, dated 1995)", "note": "Where a name gives a salt, the structure may show the parent alone."}
{"molecular_target": "T1, ACAT (Homo sapiens, UniProt P35610)", "T1 construct": "endogenous in cells; host or cells: HepG2", "T1 sequence (P35610 1-550)": "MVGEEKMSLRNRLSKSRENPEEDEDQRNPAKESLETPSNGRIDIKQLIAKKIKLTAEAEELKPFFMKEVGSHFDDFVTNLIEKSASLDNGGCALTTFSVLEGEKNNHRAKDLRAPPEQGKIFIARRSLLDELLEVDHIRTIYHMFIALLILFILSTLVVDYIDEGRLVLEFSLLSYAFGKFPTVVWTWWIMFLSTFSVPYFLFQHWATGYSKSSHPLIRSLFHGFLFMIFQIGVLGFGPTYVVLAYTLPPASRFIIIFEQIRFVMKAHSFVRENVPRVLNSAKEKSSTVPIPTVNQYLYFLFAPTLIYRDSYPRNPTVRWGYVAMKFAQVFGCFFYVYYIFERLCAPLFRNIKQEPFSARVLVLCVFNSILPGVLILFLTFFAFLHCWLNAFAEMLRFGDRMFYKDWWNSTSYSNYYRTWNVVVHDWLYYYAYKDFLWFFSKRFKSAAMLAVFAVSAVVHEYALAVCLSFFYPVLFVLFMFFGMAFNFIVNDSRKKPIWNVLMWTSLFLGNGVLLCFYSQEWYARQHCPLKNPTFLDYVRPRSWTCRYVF", "experiment": "ACAT inhibition: radiolabelled cholesterol oleate production from labelled oleic acid in HepG2 cells", "type": "cell-based", "settings": "concentration required to inhibit 50% of ACAT (cholesterol oleate production vs control)", "protocol": "ACAT inhibition of the compounds of the present invention were assayed by the following method. HepG2 cell coming from human hepatic cancer cell was used for assaying ACAT activity. Thus, the assay was effected by adding radioactivity labelled oleic acid-bovine serum albumin complex into an incubation solution of HepG2 cell and measuring the amount of radioactivity labelled cholesterol oleate produced from the radioactivity labelled oeleic acid within the cell. Therefore, the activity of the compound of this invention to inhibit ACAT was obtained by calculating how much percent lowered the productivity of cholesterol oleate in control group containing no test compound by adding the test compound in each concentration (μM) and then expressing IC50 value, namely concentration of a test compound required to inhibit 50% expression of enzyme.", "units": {"IC50": "nM"}}
{"smiles": "CCCCC[C@@H](CNC(=O)Nc1c(OCC)ccc2c1CCCC2)c1cccc2c1OCO2", "note": "[Example 22, (R)-1-[2-(2,3-methylenedioxyphenyl)heptyl]-3-(2-ethoxy-5,6,7,8-tetrahydronaphthalene-1-yl) urea]", "IC50": 139}
{"smiles": "CCCCC[C@@H](CNC(=O)Nc1c(OC(C)C)ncnc1OC(C)C)c1cccc2c1OCO2", "note": "[Example 29, (R)-1-[2-(2,3-methylenedioxyphenyl)heptyl]-3-[4,6-di (1-methylethoxy)pyrimidine-5-yl]urea]", "IC50": 314}
{"smiles": "CCCCC[C@@H](CNC(=O)Nc1c(OC)ccc2c1CCCC2)c1cccc2c1OCO2", "note": "[Example 21, (R)-1-[2-(2,3-methylenedioxyphenyl)heptyl]-3-(2-methoxy-5,6,7,8-tetrahydronaphthalene-1-yl) urea]", "IC50": 154}
{"smiles": "CCCCCC(CC(=O)Nc1c(C(C)C)cccc1C(C)C)c1cccc2c1OCO2", "note": "(centres unmarked) [Example 1, N-(2,6-diisopropylphenyl)-3-(2,3-methylenedioxyphenyl)octanamide]", "IC50": 10}
{"smiles": "CCCCC[C@@H](CNC(=O)Nc1cccc2c1OC(C)(C)C2)c1cccc2c1OCO2", "note": "[Example 24, (R)-1-[2-(2,3-methylenedioxyphenyl)heptyl]-3-(2,3-dihydro-2,2-dimethylbenzofuran-7-yl) urea]", "IC50": 230}
{"smiles": "CCCCC[C@@H](CNC(=O)Nc1c(OC(C)C)ccc2c1CCCC2)c1cccc2c1OCO2", "note": "[Example 20, (R)-1-[2-(2,3-methylenedioxyphenyl)heptyl]-3-(2-isopropoxy-5,6,7,8-tetrahydronaphthalene-1-yl) urea]", "IC50": 37}
{"smiles": "CCCCCC(CC(=O)Nc1c(C(C)C)cccc1C(C)C)c1cc(C(C)=O)cc(OC)c1OC", "note": "(centres unmarked) [Example 10, N-(2,6-Diisopropylphenyl)-3-(5-acetyl-2,3-dimethoxyphenyl) octanamide]", "IC50": 7.6}
{"smiles": "CCCCC[C@@H](CNC(=O)Nc1c(OC(C)C)c(C)nn1C(C)(C)C)c1cccc2c1OCO2", "note": "[Example 34, (R)-1-[2-(2,3-methylenedioxyphenyl)heptyl]-3-[1-(1,1-dimethylethyl)-3-methyl-4-(1-methylethoxy)pyrazole-5-yl]urea]", "IC50": 106}
{"smiles": "CCCCCCC(CC(=O)Nc1c(C(C)C)cccc1C(C)C)c1cccc(OC)c1OC", "note": "(centres unmarked) [Example 4, N-(2,6-Diisopropylphenyl)-3-(2,3-dimethoxyphenyl) nonanamide]", "IC50": 6.5}
{"smiles": "CCCCC[C@@H](CNC(=O)Nc1c(OC(C)C)c(C)nn1-c1ccccc1)c1cccc2c1OCO2", "note": "[Example 31, (R)-1-[2-(2,3-methylenedioxyphenyl)heptyl]-3-[3-methyl-4-(1-methylethoxy)-1-phenylpyrazole-5-yl]urea]", "IC50": 28}
{"smiles": "CCCCCC(CC(=O)Nc1c(C(C)C)cccc1C(C)C)c1cc(N(C)C)cc(OC)c1OC", "note": "(centres unmarked) [Example 17, N-(2,6-diisopropylphenyl)-3-(2,3-dimethoxy-5-dimethylaminophenyl) octanamide]", "IC50": 0.9}
{"smiles": "CCCCCC(CCC(=O)Nc1c(C(C)C)cccc1C(C)C)c1cccc(OC)c1OC", "note": "(centres unmarked) [Example 9, N-(2,6-Diisopropylphenyl)-4-(2,3-dimethoxyphenyl) nonanamide]", "IC50": 50}
{"smiles": "CCCCC[C@@H](CNC(=O)Nc1c(OCC)ccc2c1CCC2)c1cccc2c1OCO2", "note": "[Example 23, (R)-1-[2-(2,3-methylenedioxyphenyl)heptyl]-3-(5-ethoxyindane-4-yl) urea]", "IC50": 195}
{"smiles": "CCCCC(CC(=O)Nc1c(C(C)C)cccc1C(C)C)c1cccc(OC)c1OC", "note": "(centres unmarked) [Example 3, N-(2,6-Diisopropylphenyl)-3-(2,3-dimethoxyphenyl) heptanamide]", "IC50": 18}
{"smiles": "CCCCCC(CC(=O)Nc1c(C(C)C)cccc1C(C)C)c1cccc(OC)c1OC", "note": "(centres unmarked) [Example 2, N-(2,6-Diisopropylphenyl)-3-(2,3-dimethoxyphenyl)octanamide]", "IC50": 3}
{"smiles": "CCCCCC(CCC(=O)Nc1c(C(C)C)cccc1C(C)C)c1cccc2c1OCO2", "note": "(centres unmarked) [Example 8, N-(2,6-Diisopropylphenyl)-4-(2,3-methylenedioxyphenyl)nonanamide]", "IC50": 10}
{"smiles": "CCCCC[C@H](CC(=O)Nc1c(C(C)C)ccc(N(C)C)c1C(C)C)c1cccc2c1OCO2", "note": "[Example 18, (R)-N-(2,6-diisopropyl-3-dimethylaminophenyl)-3-(2,3-methylenedioxyphenyl) octanamide hydrochloride]", "IC50": 101}
{"smiles": "CCCCC[C@@H](CNC(=O)Nc1c(N(C)C)ncnc1N(C)C)c1cccc2c1OCO2", "note": "[Example 25, (R)-1-[2-(2,3-methylenedioxyphenyl)heptyl]-3-[4,6-bis (dimethylamino)pyrimidine-5-yl]urea]", "IC50": 57}
{"smiles": "CCCCC[C@@H](CNC(=O)Nc1c(OCC)ncnc1N(C)C)c1cccc2c1OCO2", "note": "[Example 30, (R)-1-[2-(2,3-methylenedioxyphenyl)heptyl]-3-(4-dimethylamino-6-ethoxypyrimidine-5-yl) urea]", "IC50": 109}
{"smiles": "CCCCC[C@@H](CNC(=O)Nc1c(N2CCCC2)ncnc1N1CCCC1)c1cccc2c1OCO2", "note": "[Example 26, (R)-1-[2-(2,3-methylenedioxyphenyl)heptyl]-3-(4,6-dipyrrolidinopyrimidine-5-yl) urea]", "IC50": 175}
